For the assay, the system named is B16 melanoma. As to the kind of experiment: Therapeutic vaccination of established B16 melanoma (tumor growth, survival). It counts as in vivo, HHD or C57BL/6 (B6) mice. Conditions: for Survival of B16-bearing HHD mice: followed through 60 days post-tumor inoculation (FIG. 11C); for B16 tumor growth in HHD mice: therapeutic vaccines, HHD mice (FIG. 11B). As for the experimental part: FIGS. 11A-11C show a series of graphs illustrating that DC.IL12 vaccines containing TASA-derived peptides are therapeutic against MC38 colon carcinomas and B16 melanomas in HHD mice. In FIG. 11A, HHD mice bearing established day seven subcutaneous MC38 tumors (right flank) were left untreated, or they were vaccinated in the left flank with control DC.IL12 or DC.IL12 pulsed with an equimolar pool (10 μM each) of the following TASA-derived peptides: DLK1326-334, EPhA2883-891, HBB31-39, NRP1869-877, PDGFRβ890-898, RGS55-13 and TEM1691-700. Identical booster vaccines were provided on day 14 post-tumor inoculation. As indicated, two vaccine cohorts were treated with depleting anti-CD4 or anti-CD8 monoclonal antibodies to evaluate the impact of these T cell subsets on therapy outcome. Tumor growth was monitored every 3-4 days through d28. In FIG. 11B, Female HHD or C57BL/6 (B6) mice were inoculated subcutaneously in the right flank with 1×10^5B16 (HLA-A2^neg) tumor cells. […] The mice then received vaccines consisting of isologous control or peptide-pulsed DC.IL12 cells subcutaneously in the left flank on days 10 and 17 (post-tumor inoculation). In cases where more than one peptide was identified for a given target antigen, an equimolar pool of the indicated peptides (each 10 μM) was pulsed onto DC.IL12 and used for vaccination. Tumor size (mean+/−SD) was monitored every 3-4 days through day 34. In FIG. 11A and FIG. 11B, mean tumor area+/−SD is reported for 5 animals/cohort. Data are the representative of those obtained in two independent experiments in each case. *p<0.05 versus DC only on the indicated days. In FIG. 11C, HHD mice bearing subcutaneous B16 melanomas were treated as described in FIG. 11B and followed through day 60 post-tumor inoculation. Data are reported in a Kaplan-Meier plot depicting overall percentage of surviving animals over time. *p<0.02 versus DC only; **p<0.002 versus DC only (with refined p-values for differences between treatment cohorts reported in Table 6). Data are cumulative for three independent experiments performed.
Vaccine Experiments. For prophylactic experiments, HHD mice were immunized subcutaneously on the right flank with 100 μl PBS or PBS containing 10^6 syngenic DC.IL12 cells that had been untreated or pre-pulsed for 4 h at 37° C. with 10 μM synthetic peptide(s). […] For analysis of tumor cellular composition in repeat experiments, MC38 tumors were isolated by surgical resection 10 days after tumor inoculation and prepared for fluorescence imaging, as described below. […] In some assays, as indicated, in vivo antibody depletions (on days 6, 13 and 20 post-tumor inoculation to assess early involvement or on days 60 and 67 or 180 and 187 to assess late involvement) of protective CD4^+ T cells or CD8^+ T cells were performed and monitored as previously described (Zhao et al., Mol Ther., 19:805-814, 2011). In all cases, tumor size (area) was monitored every 3-4 days and is reported as mean+/−SD in mm^2.
To analyze the status and specificity of Tc1 cells, HHD mice rendered free of B16 melanoma after therapeutic vaccination with DLK or RGS5 peptide-based vaccines were sacrificed 60 days after tumor inoculation. Fresh MACS-isolated spleen CD8^+ T cells were then analyzed for reactivity against HLA-A2^+PDGFRβ^+CD31^neg pericytes, HLA-A2^+PDGFRβ^negCD31^+ VEC or HLA-A2^neg tumor cells flow-sorted from day 19 B16 tumors growing progressively in untreated HHD mice. […]

For “EphA2: EphA2-derived peptide 883-891 pulsed onto DC or DC.IL12 (TLADFDPRV; listed as Homo sapiens)”, the “Survival of B16-bearing HHD mice” value is listed as “significant survival benefits” and the “B16 tumor growth in HHD mice” value was “effective in suppressing tumor growth”.
Consider “RGS5: RGS5-derived peptide 5-13 pulsed onto DC or DC.IL12 (LAALPHSCL; listed as Homo sapiens)”, for which the “Survival of B16-bearing HHD mice” value was “significant survival benefits” and the “B16 tumor growth in HHD mice” value is given as “effective in suppressing tumor growth”.
As for “TEM1: TEM1-derived peptide 691-700 pulsed onto DC or DC.IL12 (LLVPTCVFLV; listed as Homo sapiens)”, the “Survival of B16-bearing HHD mice” value was “significant survival benefits”.

For the origin of these results see patent publication US9937250B2, “Immunogenic tumor associated stromal cell antigen peptides and methods of their use” (University of Pittsburgh—Of the Commonwealth System of …, priority 2011, dated 2018).
